Experimental data taken from ChEMBL document CHEMBL5543166, “Development of Benziodarone Analogues with Enhanced Potency for Selective Binding to Transthyretin in Human Plasma” (J Med Chem, 2024).
≈ marks a conversion by molar mass, not a printed value.

Columns and labels:
[1] = Solubility of compound at pH 1.2 incubated for 4 hrs by HPLC or LC-MS/MS analysis; assay type: physicochemical; conditions: buffer, pH 1.2, 4 h
[2] = Solubility of compound at pH 6.8 incubated for 4 hrs by HPLC or LC-MS/MS analysis; assay type: physicochemical; conditions: buffer, pH 6.8, 4 h
[3] = Plasma protein binding in rat assessed as unbound fraction at 1 uM incubated for 6 hrs by LC/MS/MS based equilibrium dialysis method; assay type: ADME, cell-free
[4] = Total clearance in male Sprague-Dawley rat at 0.1 mg/kg, iv measured upto 8 hrs by LC-MS/MS analysis; assay type: ADME, organism-based; conditions: in vivo
[5] = Volume of distribution at steady state in male Sprague-Dawley rat at 0.1 mg/kg, iv measured upto 8 hrs by LC-MS/MS analysis; assay type: ADME, organism-based; conditions: in vivo
[6] = AUC (0 to 8 hrs) in male Sprague-Dawley rat at 0.1 mg/kg, iv measured upto 8 hrs by LC-MS/MS analysis; assay type: ADME, organism-based; conditions: in vivo
[7] = AUC (0 to 8 hrs) in male Sprague-Dawley rat at 0.1 mg/kg, po measured upto 8 hrs by LC-MS/MS analysis; assay type: ADME, organism-based; conditions: in vivo
[8] = Tmax in male Sprague-Dawley rat at 0.1 mg/kg, po measured […] by LC-MS/MS analysis; assay type: ADME, organism-based; conditions: in vivo
[9] = C0 in male Sprague-Dawley rat at 0.1 mg/kg, iv measured upto 8 hrs by LC-MS/MS analysis; conditions: in vivo
[10] = Cmax in male Sprague-Dawley rat at 0.1 mg/kg, po measured upto 8 hrs by LC-MS/MS analysis; conditions: in vivo
[11] = Oral bioavailability in male Sprague-Dawley rat at 0.1 mg/kg measured upto 8 hrs by LC-MS/MS analysis; assay type: ADME, organism-based; conditions: in vivo
[12] = target: Albumin (Homo sapiens, UniProt P02768); assay: Binding affinity to serum albumin in human plasma; assay type: ADME, cell-free
[13] = pampa, 4 h, 500 µM
[14] = target: Transthyretin (Homo sapiens, UniProt P02766); assay: Binding affinity to TTR in human plasma assessed as target occupancy incubated for 6 hrs in presence of E)-S-phenyl 3-(4-hydroxy-3,5-dimethyistyryl)benzothioate by fluorescence based competitive binding assay; assay type: cell-free
[15] = target: Transthyretin (Homo sapiens, UniProt P02766, V50M); assay: Binding affinity to TTR V30M mutant (unknown origin) assessed as dissociation constant by ITC analysis

Albumin, sequence (P02768 whole entry): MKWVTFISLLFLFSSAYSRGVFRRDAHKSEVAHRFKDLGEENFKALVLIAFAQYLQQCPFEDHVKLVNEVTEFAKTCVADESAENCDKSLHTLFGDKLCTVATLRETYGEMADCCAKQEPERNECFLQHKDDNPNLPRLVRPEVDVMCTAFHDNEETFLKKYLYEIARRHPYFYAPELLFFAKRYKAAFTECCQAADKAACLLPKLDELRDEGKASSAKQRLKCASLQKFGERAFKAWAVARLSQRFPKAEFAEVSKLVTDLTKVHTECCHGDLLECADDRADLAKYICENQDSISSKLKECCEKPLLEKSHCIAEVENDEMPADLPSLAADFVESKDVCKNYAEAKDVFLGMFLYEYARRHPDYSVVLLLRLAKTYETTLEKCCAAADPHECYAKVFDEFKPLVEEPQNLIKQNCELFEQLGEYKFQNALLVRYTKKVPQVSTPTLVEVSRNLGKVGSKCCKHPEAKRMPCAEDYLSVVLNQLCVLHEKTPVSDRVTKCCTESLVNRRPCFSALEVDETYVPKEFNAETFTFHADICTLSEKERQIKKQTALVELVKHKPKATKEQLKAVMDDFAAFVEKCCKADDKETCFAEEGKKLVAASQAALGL

Structure (SMILES)	solubility [1]	solubility [2]	Fu [3]	CL [4]	Vdss [5]	AUC [6]	AUC [7]	Tmax [8]	C0 at 8 h [9]	Cmax [10]	bioavailability [11]	Activity [12]	permeability [13]	EC50 [14]	Kd [15]
CCc1oc2cccc(Br)c2c1C(=O)c1cc(I)c(O)c(I)c1	0.054 µM (≈ 0.0322 µg/mL)	> 100 µM	< 0.01%	0.343 mL/min/kg	0.113 L/kg	3708 ng·h/mL	2476 ng·h/mL	4 h	1740 ng/mL	390 ng/mL					
O=C(O)c1ccc2nc(-c3cc(Cl)cc(Cl)c3)oc2c1				0.0993 mL/min/kg	0.311 L/kg	2363 ng·h/mL	1500 ng·h/mL	4 h	519 ng/mL	235 ng/mL	63.5%	Active			
CCc1oc2c(Cl)ccc(Cl)c2c1C(=O)c1cc(I)c(O)c(I)c1	< 0.02 µM	89.5 µM (≈ 52.5 µg/mL)	< 0.01%	0.662 mL/min/kg	0.269 L/kg	1746 ng·h/mL	350 ng·h/mL	4 h	1340 ng/mL	77 ng/mL					
COCCc1ccc(OCC(O)CNC(C)C)cc1 (stereo not given) [METOPROLOL]													1.8 10^-6 cm/s		
O=C(O)c1cc(/N=N/c2ccc(S(=O)(=O)Nc3ccccn3)cc2)ccc1O [SULFASALAZINE]													0.038 10^-6 cm/s		
CCc1oc2ccccc2c1C(=O)c1cc(I)c(O)c(I)c1 [BENZIODARONE]												Active		8.9 µM	0.078 µM

The next lines start with the values.

solubility [1]	solubility [2]	Fu [3]	CL [4]	Vdss [5]	AUC [6]	AUC [7]	Tmax [8]	C0 at 8 h [9]	Cmax [10]	bioavailability [11]	Activity [12]	permeability [13]	EC50 [14]	Kd [15]	Structure (SMILES)
< 0.01 µM	> 100 µM	< 0.01%	0.343 mL/min/kg	0.112 L/kg	3726 ng·h/mL	2524 ng·h/mL	4 h	1720 ng/mL	395 ng/mL						CCc1oc2cccc(Cl)c2c1C(=O)c1cc(I)c(O)c(I)c1
< 0.02 µM	> 100 µM	< 0.01%	0.405 mL/min/kg	0.153 L/kg	2961 ng·h/mL	1489 ng·h/mL	4 h	1540 ng/mL	240 ng/mL		Active				CCc1oc2cccc(I)c2c1C(=O)c1cc(I)c(O)c(I)c1
< 0.01 µM	> 100 µM	< 0.01%	0.44 mL/min/kg	0.123 L/kg	3102 ng·h/mL	1918 ng·h/mL	4 h	1640 ng/mL	303 ng/mL						CCc1oc2cccc(C)c2c1C(=O)c1cc(I)c(O)c(I)c1
